Measurements reported in patent US12378250B2, “Tricyclic compound as IRAK4 inhibitor” (KOREA RESEARCH INSTITUTE OF CHEMICAL TECHNOLOGY, priority 2018, dated 2025).

Columns and labels:
[1] = tested on: TNF-α secretion, peripheral blood mononuclear cells (PBMCs); assay: Suppression of TNF-α secretion in LPS-treated PBMCs (ELISA); format: cell-based; details: PBMC, 100 ng/ml LPS, 24 hours, read-out: TNF-α, % inhibition degree
Summary of the method: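 PBMCs (1×10^5 cells/well for TNF-α, 2×10^5 for IFN-α) preincubated 30 min with compound, then stimulated with 100 ng/ml LPS for 24 h (TNF-α) or 500 nM ODN2216 for 72 h (IFN-α). Cytokines in supernatants quantified by sandwich ELISA with TMB, absorbance 450/570 nm.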

[2] = tested on: TNF-α in serum, LPS-induced systemic inflammatory disease; assay: Suppressive effects on LPS-induced systemic inflammatory disease in mice (serum TNF-α); format: in vivo, C57BL/6 mice; details: doses of 50 and 100 mg/kg, oral, 2 hours prior to LPS 15 mg/kg i.p.
Procedure: As experimental animals, 8-week-old C57BL/6 (20 to 23 g) mice were supplied from Orient Bio Co., Ltd. (Seongnam, Gyeonggi-do) and used. The mice were acclimatized for 2 weeks or more in an animal room of the Korea Research Institute of Chemical Technology, where temperature (22±1° C.) and humidity (50±10%) were automatically adjusted, and then used for experiments, and allowed to freely ingest water and feed. This animal experiment was performed with the approval of the Animal Care and Use Committee of the Korea Research Institute of Chemical Technology. A systemic inflammatory disease was induced by administering a dose of 15 mg/kg lipopolysaccharide (LPS, Sigma L2880) intraperitoneally to the mice. A test drug was suspended in a 10% Cremophor solution and administered orally 2 hours prior to LPS injection, the mice were anesthetized with isoflurane 1 hour after LPS administration, and blood was collected from the heart. Serum was obtained by centrifuging the collected blood at 13,000 rpm for 15 minutes, store at −20° C., and then taken if needed to measure the content of cytokine (TNF-α) in serum using an ELISA kit manufactured by BD Biosciences. […]

[3] = tested on: ISG promoter, THP1-Lucia™ ISG cell line; assay: ISG promoter inhibition, THP1-Lucia ISG cell line; format: cell-based; details: 1 μg/ml Poly(dA:dT)/LyoVec, 24 hours, read-out: ISG, % inhibition degree
Summary of the method: (§1)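 THP1-Lucia cells (NF-κB line 1×10^4/well, ISG line 2×10^4/well) preincubated with compound for 30 minutes. Stimulation then used 100 ng/ml LPS (NF-κB) or 1 μg/ml Poly(dA:dT)/LyoVec (ISG) for 24 hours. Secreted luciferase in supernatant measured by Quanti-luc luminescence.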

[4] = target: T1, IRAK4 enzyme (Homo sapiens, UniProt Q9NWZ3); assay: IRAK4 enzyme inhibition degree (bead-based kinase assay, peptide substrate BMKC-2, 100 μM ATP); format: biochemical; details: compound 1 μM
T1 sequence (Q9NWZ3 1-460): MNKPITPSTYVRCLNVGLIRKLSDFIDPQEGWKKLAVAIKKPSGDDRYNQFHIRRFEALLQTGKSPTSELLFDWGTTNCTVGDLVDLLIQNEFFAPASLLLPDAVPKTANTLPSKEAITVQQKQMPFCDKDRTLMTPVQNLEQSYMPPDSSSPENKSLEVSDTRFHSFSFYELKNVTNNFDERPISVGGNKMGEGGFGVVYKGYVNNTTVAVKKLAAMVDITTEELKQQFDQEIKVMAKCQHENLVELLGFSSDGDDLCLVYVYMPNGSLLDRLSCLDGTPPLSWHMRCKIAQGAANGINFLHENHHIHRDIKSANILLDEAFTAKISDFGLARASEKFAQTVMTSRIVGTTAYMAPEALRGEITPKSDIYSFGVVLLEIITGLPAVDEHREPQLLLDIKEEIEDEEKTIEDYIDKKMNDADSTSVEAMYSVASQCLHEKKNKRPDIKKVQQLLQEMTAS
Summary of the method: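 IRAK4 (0.4 ng/μl stock) preincubated 10 min with compound, then 6 μM BMKC-2 peptide with 100 μM ATP (mix concentrations) for 60 min at room temperature; EDTA stop. Phospho-Thr antibody with AlphaScreen donor/acceptor beads detected product; % inhibition versus controls, IC50 by non-linear regression.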

[5] = tested on: NF-κB promoter, THP1-Lucia™ NF-κB cell line; assay: NF-κB promoter inhibition, THP1-Lucia NF-κB cell line; format: cell-based; details: 100 ng/ml LPS, 24 hours, read-out: NF-κB, % inhibition degree
Summary of the method: as §1

inhibition at 1 µM [4]: 100%
SMILES: Fc1cncc(-c2ccc3[nH]c4ncnc(N[C@H]5CC[C@H](N6CCOCC6)CC5)c4c3c2)c1 [Compound 6aaf, 6-(5-fluoropyridin-3-yl)-N-(trans-4-morpholinocyclohexyl)-9H-pyrimido[4,5-b]indole-4-amine]
inhibition at 0.1 µM ([1]; 0.1 μM): 51% | inhibition at 1 µM ([1]; 1 μM): 124% | suppressive effect on systemic inflammation (serum TNF-α) compared to PF-06650833 [2]: better suppressive effect than PF-06650833 | inhibition at 0.1 µM ([3]; 0.1 μM): 24% | inhibition at 1 µM ([3]; 1 μM): 83% | inhibition at 0.1 µM ([5]; 0.1 μM): 43% | inhibition at 1 µM ([5]; 1 μM): 82%
